Reference: EP0006128A1, “2,3-Dihydro-2-methyl-3-(2-(dimethylamino)-propyl)-3-phenyl-1H-indol-1-carboxaldehyde, process for its preparation and pharmaceutical preparations containing it” (Dr. Karl Thomae GmbH, priority 1978, dated 1980)
Like-named read-outs stand apart in the source and are kept apart here.

How the values were obtained:
[1] = tested on: durch Acetylcholin hervorgerufenen Bronchialspasmen; assay: Broncholytic effect in guinea pigs, method of Konzett and Rössler (acetylcholine-induced bronchospasm); format: in vivo, Meerschweinchen; settings: Cavia porcellus, iv, i.v. injection, dose giving 50 % reduction, read-out: Herabsetzung der durch Acetylcholin hervorgerufenen Bronchialspasmen um 50 %
Experimental: Die broncholytische Wirkung wurde an Meerschweinchen nach der Methode von KONZETT und RÖSSLER (Arch. exp. Path. Pharmakol. 195, 71, (1940)) geprüft. Die Herabsetzung der durch Acetyl- cholin hervorgerufenen Bronchialspasmen um 50 % wurde durch i.v.-Injektion von 1,5 mg/kg des Racemats erreicht, beim (-)-Enantiomeren reichten bereits 1 mg/kg aus, um etwa den gleichen Effekt zu erreichen.

Acute toxicity in mice = settings: mouse, in vivo, mice of both sexes, 20 g, 14 days observation
Experimental: Für die Bestimmung der akuten Toxizität wurden Mäuse beider Geschlechter mit einem Körpergewicht von 20 g verwendet. 10 Tiere pro Dosis erhielten die Substanz einmalig appliziert. Die Berechnung der DL50, der Dosis, nach deren Verabreichung 50 % der Tiere innerhalb der Beobachtungszeit verstarben, erfolgte i nach der Methode von LITCHFIELD und WILCOXON nach einer Beobachtungszeit von 14 Tagen: • Racemat CL50 p.o.: 545 mg/kg DL50 i.v.: 66 mg/kg, […]

Katze = assay: Antitussive effect in the cat, method of Domenjoz; format: in vivo; settings: dose range 0,5 bis 2 mg/kg i.v.
wachen weißen Ratten = assay: Cough test in conscious rats, cough provoked by inhaled citric acid spray; format: in vivo; settings: Rattus norvegicus, po, 0.5 h; male rats, per os as Tylose suspension, 7,5 % citric acid spray over 2 min, cough count 30 min after application, dose halving the number of coughs
Source text: Die Hustenversuche wurden an wachen weißen Ratten (Geschlecht: männlich) durchgeführt. Die Hustenprovokation erfolgte durch Inhalation eines 7,5 %igen Zitronensäuresprays über 2 Minuten. 10 Tiere pro Dosis erhielten die Substanz als Tyloseaufschwemmung peroral appliziert. Die Bewertung erfolgte aus der durchschnittlichen prozentualen Abnahme der Zahl der Hustenstöße 30 Minuten nach Applikation gegenüber den Leerwerten. (Weitere methodische Angaben: ENGELHORN und PÜSCHMANN, Arzneim.-Forsch. 13, 474-480,(1963)). Die ED50 ist die Dosis, nach deren Verabreichung die Zahl der Hustenstöße durchschnittlich um die Hälfte vermindert wird, die Berechnung erfolgte nach der Methode von Litchfield und Wilcoxon. Es wurde für das Racemat eine ED50 von 3,9 mg/kg per os gefunden.

[2] = po, single dose p.o., read-out: DL50 p.o.

| Compound | ED50 [1] [mg/kg] | LD50 at 336 h (Acute toxicity in mice; [2]) [mg/kg] | antitussive Wirkung (Katze) | ED50 (wachen weißen Ratten) [mg/kg] | LD50 at 336 h (Acute toxicity in mice; iv, single dose i.v., read-out: DL50 i.v.) [mg/kg] |
| --- | --- | --- | --- | --- | --- |
| CC(CC1(c2ccccc2)c2ccccc2N(C=O)C1C)N(C)C (single isomer, unassigned; (-)) [(-)-Enantiomeres, (-)-2,3-Dihydro-2-methyl-3-/2-(dimethylamino)-propyl/-3-phenyl-1H-indol-1-carboxaldehyd] | ~1 | ~560 |  |  |  |
| CC(CC1(c2ccccc2)c2ccccc2N(C=O)C1C)N(C)C (single isomer, unassigned; (+)) [(+)-Enantiomeres, (+)-2,3-Dihydro-2-methyl-3-[2-(dimethylamino)-propyl]-3-phenyl-1H-indol-1-carboxaldehyd] |  | ~500 | deutliche hustenstillende Wirkung |  |  |
| CC(CC1(c2ccccc2)c2ccccc2N(C=O)C1C)N(C)C (racemic) [Racemat, Rac. 2,3-Dihydro-2-methyl-3-[2-(dimethylamino)-propyl]-3-phenyl-1H-indol-1-carboxaldehyd] | 1.5 | 545 | deutliche hustenstillende Wirkung | 3.9 | 66 |
